Structures can show the parent of a compound that is named as a salt.
Target: LC3B (Homo sapiens, UniProt Q9GZQ8)
Experiment: Fluorescence Polarization (FP) Assay: displacement of FITC-labeled peptide from GST-LC3B
Type: binding
Conditions: Fluorescence Polarization assay; GST-LC3B 180 nM, FITC-labeled peptide 18 nM, 25° C.; read-out: IC50
Method: The compounds of the present invention for regulating the autophagy-related protein LC3B were tested by Fluorescence Polarization (FP) Assay.
Fluorescence Polarization (FP) Assay Test

Row | Compound | IC50 [µM]
1 | O=C1Oc2ccc(-c3ccccc3)cc2C(=O)C1=CNCCN1CCN(CCO)CC1 [Compound 156, 3-(((2-(4-(2-hydroxyethyl)piperazin-1-yl)ethyl)amino)methylene)-6-phenylchromane-2,4-dione] | 3 to 15
2 | CC(NC=C1C(=O)CC(c2ccccc2)CC1=O)c1ccccn1 (centres unmarked) [Compound 160, 5-phenyl-2-(((1-(pyridin-2-yl)ethyl)amino)methylene) cyclohexane-1,3-dione] | 15 to 100
3 | O=C1CC(c2ccccc2)CC(=O)C1=CNCC1CCNCC1 (centres unmarked) [Compound 161, 5-phenyl-2-(((piperidin-4-ylmethyl)amino)methylene) cyclohexane-1,3-dione hydrochloride] | 100 to 1000
4 | O=C1CC(c2ccccc2)CC(=O)C1=CNC[C@@H](O)[C@H](O)[C@@H](O)[C@@H](O)CO (stereo partly drawn) [Compound 163, 2-((((2R,3S,4S,5S)-2,3,4,5,6-pentahydroxyhexyl)amino)methylene)-5-phenylcyclohexane-1,3-dione] | 100 to 1000
5 | CN(C)CCCCNC=C1C(=O)CC(c2ccccc2)CC1=O (centres unmarked) [Compound 170, 2-(((4-(dimethylamino)butyl)amino)methylene)-5-phenylcyclohexane-1,3-dione] | 3 to 15
6 | CCN1CCC[C@H]1CNC=C1C(=O)CC(c2ccccc2)CC1=O (stereo partly drawn) [Compound 171, 2-(((((S)-1-ethylpyrrolidin-2-yl)methyl)amino)methylene)-5-phenylcyclohexane-1,3-dione] | 3 to 15
7 | NC1CC(NC=C2C(=O)CC(c3ccccc3)CC2=O)C1 (centres unmarked) [Compound 173, 2-(((3-aminocyclobutyl)amino)methylene)-5-phenylcyclohexane-1,3-dione hydrochloride] | 15 to 100
8 | NCCOC(=O)[C@H](Cc1ccccc1)NC=C1C(=O)CC(c2ccccc2)CC1=O (stereo partly drawn) [Compound 178, 2-aminoethyl ((2,6-dioxo-4-phenylcyclo-hexylidene)methyl)-L-phenylalaninate hydrochloride] | 15 to 100
9 | CC1(C)CC(=O)C(=CNCCN2CCN(CCO)CC2)C(=O)C1 [Compound 182, 2-(((2-(4-(2-hydroxyethyl)piperazin-1-yl)ethyl)amino)methylene)-5,5-dimethyl-cyclohexane-1,3-dione] | 100 to 1000
10 | O=C1/C(=C/NCCN2CCN(CCO)CC2)Oc2ccccc21 [Compound 183, 2-(((2-(4-(2-hydroxyethyl)piperazin-1-yl)ethyl)amino)methylene) benzofuran-3(2H)-one] | 100 to 1000

Results, then the compound that gave them:

Row | IC50 [µM] | Compound
11 | 100 to 1000 | CC(O)C(NC=C1C(=O)CC(c2ccccc2)CC1=O)C(=O)O (centres unmarked) [Compound 158, 2-(((2,6-dioxo-4-phenylcyclo-hexylidene)methyl)amino)-3-hydroxybutanoic acid]
12 | 15 to 100 | CCOC(=O)[C@H](C)NC=C1C(=O)CC(c2ccccc2)CC1=O (stereo partly drawn) [Compound 162, ethyl ((2,6-dioxo-4-phenylcyclo-hexylidene)methyl)-L-alaninate]
13 | 3 to 15 | CNCCNC=C1C(=O)CC(c2ccccc2)CC1=O (centres unmarked) [Compound 164, 2-(((2-(methylamino)ethyl)amino)methylene)-5-phenylcyclohexane-1,3-dione hydrochloride]
14 | 3 to 15 | CCOC(=O)C(CS)NC=C1C(=O)CC(c2ccccc2)CC1=O (centres unmarked) [Compound 169, ethyl ((2,6-dioxo-4-phenylcyclo-hexylidene)methyl) cysteinate]
15 | 3 to 15 | NCCNC=C1C(=O)CC(c2ccccc2)CC1=O (centres unmarked) [Compound 175, 2-(((2-aminoethyl)amino)methylene)-5-phenylcyclo-hexane-1,3-dione hydrochloride]
16 | 100 to 1000 | CC(=O)NCCNC=C1C(=O)CC(c2ccccc2)CC1=O (centres unmarked) [Compound 176, N-(2-(((2,6-dioxo-4-phenylcyclo-hexylidene)methyl)amino)ethyl) acetamide]
17 | 100 to 1000 | CONC=C1C(=O)CC(c2ccccc2)CC1=O (centres unmarked) [Compound 180, 2-((methoxyamino)methylene)-5-phenylcyclo-hexane-1,3-dione]
